Test results published in patent US8268293B2, “UV protection” (Merck Patent GmbH, priority 2005, dated 2012).

How the values were obtained:
[1] = Oxidation in UV light: change in the UV spectrum on irradiation; format: physicochemical
Description: The curves stand for the unirradiated substance (exposed to 0 kJ/m^2), after irradiation for 15 min (exposure to 86 kJ/m^2), after irradiation for 65 min (exposure to 373 kJ/m^2), after irradiation for 235 min (exposure to 1349 kJ/m^2) and after irradiation for 405 min (exposure to 2325 kJ/m^2).

[2] = Oxidation in UV light in the presence of further antioxidants: UV/VIS spectrum of beta-carotene emulsions on irradiation

CCCCC(CC)COC(=O)C(Cc1cc(OC)c(O)c(OC)c1)C(=O)OCC(CC)CCCC (stereo not shown)
UV absorption in the UV-A region on irradiation with UV light ([1]; after irradiation for 65 min (373 kJ/m^2), xenon lamp 95.69 W/m^2, 290-400 nm, increases further on longer irradiation): significantly increased UV absorption
Emax of the UV-A absorption developed on irradiation ([1]; neat substance, after UV irradiation): 320-340 nm
effect on beta-carotene degradation in the emulsion on UV irradiation ([2]; emulsion with 0.5% beta-carotene and 4% compound vs emulsion without compound, irradiated 90 min, beta-carotene absorption at 440-480 nm): stabilises the beta-carotene
Emax of the absorption of the reaction product in the UV-A region ([2]; emulsion with 0.5% by weight beta-carotene and 4% by weight compound, irradiated 90 min (curve B)): 320-340 nm
